How the values were obtained:
[1] = biological target: Glycogen synthase kinase-3 alpha (Homo sapiens, UniProt P49840); assay: Enzyme Inhibition
Protocol: In addition, the concentrations of test compound employed are either 10 μg/mL, 1 μg/mL, 0.1 μg/mL, or 0.01 μg/m: Method 1: The inhibitory activities of test compounds against the p38 MAPKα isoform (MAPK14: Invitrogen) are evaluated indirectly by determining the level of activation/phosphorylation of the down-stream molecule, MAPKAP-K2. The p38 MAPKα protein (80 ng/mL, 2.5 μL) is mixed with the test compound (2.5 μL of either 4 μg/mL, 0.4 μg/mL, 0.04 μg/mL or 0.004 μg/mL) for 2 hr at RT. […] The mixture is incubated for 1 hr at RT. Development reagent (protease, 5 μL) is added for 1 hr prior to detection in a fluorescence microplate reader (Varioskan Flash, ThermoFisher Scientific).

[2] = biological target: Proto-oncogene tyrosine-protein kinase Src (Homo sapiens, UniProt P12931); assay: Enzyme Inhibition
Protocol: The relevant enzyme (3000 ng/mL or 2000 ng/mL respectively, 2.5 μL) is incubated with the test compound (either 1 μg/mL, 0.1 μg/mL, 0.01 μg/mL, or 0.001 μg/mL, 2.5 μL each) for 2 hr at RT. The FRET peptides (8 μM, 2.5 μL), and appropriate ATP solutions (2.5 μL, 800 μM for c-Src, and 60 μM ATP for Syk) are then added to the enzymes/compound mixtures and the mixture incubated for 1 hr. Development reagent (protease, 5 μL) is added for 1 hr prior to detection in a fluorescence microplate reader (Varioskan Flash, ThermoFisher Scientific).

Chain of Glycogen synthase kinase-3 alpha (P49840 whole entry, canonical isoform): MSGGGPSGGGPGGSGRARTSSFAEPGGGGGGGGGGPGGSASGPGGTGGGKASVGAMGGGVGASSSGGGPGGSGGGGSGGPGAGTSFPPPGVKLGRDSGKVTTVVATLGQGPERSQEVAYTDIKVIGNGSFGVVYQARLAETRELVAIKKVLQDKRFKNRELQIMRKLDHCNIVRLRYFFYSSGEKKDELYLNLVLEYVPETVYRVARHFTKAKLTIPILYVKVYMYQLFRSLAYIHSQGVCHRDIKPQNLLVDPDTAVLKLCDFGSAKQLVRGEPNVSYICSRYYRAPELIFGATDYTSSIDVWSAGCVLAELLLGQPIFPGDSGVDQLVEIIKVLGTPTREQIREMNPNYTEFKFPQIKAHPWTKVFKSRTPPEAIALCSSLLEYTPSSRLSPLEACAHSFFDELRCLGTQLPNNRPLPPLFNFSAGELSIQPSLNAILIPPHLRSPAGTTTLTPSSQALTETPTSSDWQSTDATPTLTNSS
Chain of Proto-oncogene tyrosine-protein kinase Src (P12931 2-536 limits assumed): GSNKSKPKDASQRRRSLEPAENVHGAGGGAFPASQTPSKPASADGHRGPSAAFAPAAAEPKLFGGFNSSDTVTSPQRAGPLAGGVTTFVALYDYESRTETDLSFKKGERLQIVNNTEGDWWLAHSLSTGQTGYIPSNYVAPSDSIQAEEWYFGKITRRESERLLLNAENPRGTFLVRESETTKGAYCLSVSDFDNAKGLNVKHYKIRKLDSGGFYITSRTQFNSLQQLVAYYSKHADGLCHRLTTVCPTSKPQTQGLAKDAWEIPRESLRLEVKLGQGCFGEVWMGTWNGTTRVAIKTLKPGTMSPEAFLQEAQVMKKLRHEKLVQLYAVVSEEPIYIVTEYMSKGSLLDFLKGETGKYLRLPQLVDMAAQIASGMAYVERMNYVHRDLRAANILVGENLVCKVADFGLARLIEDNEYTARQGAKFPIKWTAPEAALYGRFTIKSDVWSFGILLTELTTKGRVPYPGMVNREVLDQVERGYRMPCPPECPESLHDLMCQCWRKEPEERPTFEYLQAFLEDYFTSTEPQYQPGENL

SMILES | IC50 [1] | IC50 [2]
COc1cc(Nc2cc(Oc3ccc(NC(=O)Nc4cc(C(C)(C)C)cc(N[S+](C)[O-])c4OC)c4ccccc34)ccn2)ccc1C(=O)NCCN1CCN(C)CC1 (stereo unspecified) [US10392346, Example 17(a)] | 4000 nM | 16 nM
COc1cc(Nc2cc(Oc3ccc(NC(=O)Nc4cc(C(C)(C)C)cc(NS(C)(=O)=O)c4OC)c4ccccc34)ccn2)ccc1C(=O)N(C)CCCN1CC[S+]([O-])CC1 [US10392346, Example 17(ag)] | 2740 nM | 17 nM
COc1cc(Nc2cc(Oc3ccc(NC(=O)Nc4cc(C(C)(C)C)cc(NS(C)(=O)=O)c4OC)c4ccccc34)ccn2)ccc1C(=O)N(C)CCCN1CCS(=O)(=O)CC1 [US10392346, Example 17(ah)] | 9190 nM | 20 nM
